The supplement of paper PMC11208160

experiment: recombinant barcode read abundance after kanamycin selection (control-corrected) (log10(CPM+1)); higher = more efficient recombination; sequences stand for … in AGTGCAGAGAAAATCGGCCAGTTTTCTCTGCCTGCAGTCCGCATGCCGT…ATTTATGCAGCGGACTGCCTTTCTCCCAAAGTGATAAACCGGACAGTATCATGGACCGGTTTTCCCGGTAATCCGTATTTGCAAGGTTGGTTTCACT; site = the 11-nt target
How it was run: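 In a pooled screen in E. coli, targets were paired with target-binding loops of the IS621 bridge RNA. Each oligo carried a promoter, a target, a barcode and the first 104 bridge RNA bases driven by J23119, and was Gibson-cloned into a vector holding the remaining 73 bp and a T7-inducible recombinase before co-electroporation with a donor plasmid. Duplicate platings went onto chloramphenicol/ampicillin LB agar as the control or onto chloramphenicol/ampicillin/kanamycin with 0.1 mM IPTG. Recombination efficiency is the averaged, control-corrected count per million of barcodes at recombinant junctions, given as log10(CPM+1).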

Sequence	recombinant barcode read abundance (log10)
GGGAGCCGCTGGGTTCTAACCTGTTGCTGAG [GGGAGCCCTCA_LTGcore_GC_RTGcore_CT] (site GGGAGCCCTCA) (LTG core: GC, RTG core: CT)	0.379
GGGAGCCGGTGGGTTCTAACCTGTTGCTGAG [GGGAGCCCTCA_LTGcore_GG_RTGcore_CT] (site GGGAGCCCTCA) (LTG core: GG, RTG core: CT)	0.212
GGGAGCCGGTGGGTTCTAACCTGTTGCTGCC [GGGAGCCCTCA_LTGcore_GG_RTGcore_GG] (site GGGAGCCCTCA) (LTG core: GG, RTG core: GG)	0.0432
GGGCGGAAATGGGTTCTAACCTGTTGCGGTT [GGGCGGACTCC_LTGcore_AA_RTGcore_AA] (site GGGCGGACTCC) (LTG core: AA, RTG core: AA)	0.428
GGGCGGAATTGGGTTCTAACCTGTTGCGGAT [GGGCGGACTCC_LTGcore_AT_RTGcore_AT] (site GGGCGGACTCC) (LTG core: AT, RTG core: AT)	0.0199
GGGCGGACATGGGTTCTAACCTGTTGCGGTG [GGGCGGACTCC_LTGcore_CA_RTGcore_CA] (site GGGCGGACTCC) (LTG core: CA, RTG core: CA)	0.732
GGGCGGACGTGGGTTCTAACCTGTTGCGGCG [GGGCGGACTCC_LTGcore_CG_RTGcore_CG] (site GGGCGGACTCC) (LTG core: CG, RTG core: CG)	0.759
GGGCGGACTTGGGTTCTAACCTGTTGCGGCT [GGGCGGACTCC_LTGcore_CT_RTGcore_AG] (site GGGCGGACTCC) (LTG core: CT, RTG core: AG)	0.292
GGGCGGACTTGGGTTCTAACCTGTTGCGGTG [GGGCGGACTCC_LTGcore_CT_RTGcore_CA] (site GGGCGGACTCC) (LTG core: CT, RTG core: CA)	0.17
GGGCGGAGCTGGGTTCTAACCTGTTGCGGGC [GGGCGGACTCC_LTGcore_GC_RTGcore_GC] (site GGGCGGACTCC) (LTG core: GC, RTG core: GC)	0.417
GGGCGGAGTTGGGTTCTAACCTGTTGCGGAC [GGGCGGACTCC_LTGcore_GT_RTGcore_GT] (site GGGCGGACTCC) (LTG core: GT, RTG core: GT)	0.199
GGGCGGATGTGGGTTCTAACCTGTTGCGGAG [GGGCGGACTCC_LTGcore_TG_RTGcore_CT] (site GGGCGGACTCC) (LTG core: TG, RTG core: CT)	0.251
GGGCGTGAATGGGTTCTAACCTGTTGCCTTT [GGGCGTGCTAG_LTGcore_AA_RTGcore_AA] (site GGGCGTGCTAG) (LTG core: AA, RTG core: AA)	0.148
GGGCGTGCATGGGTTCTAACCTGTTGCCTTG [GGGCGTGCTAG_LTGcore_CA_RTGcore_CA] (site GGGCGTGCTAG) (LTG core: CA, RTG core: CA)	0.0757
GGGCGTGCTTGGGTTCTAACCTGTTGCCTCT [GGGCGTGCTAG_LTGcore_CT_RTGcore_AG] (site GGGCGTGCTAG) (LTG core: CT, RTG core: AG)	0.831
GGGCGTGGGTGGGTTCTAACCTGTTGCCTCC [GGGCGTGCTAG_LTGcore_GG_RTGcore_GG] (site GGGCGTGCTAG) (LTG core: GG, RTG core: GG)	0.116
GGGCGTGGTTGGGTTCTAACCTGTTGCCTAC [GGGCGTGCTAG_LTGcore_GT_RTGcore_GT] (site GGGCGTGCTAG) (LTG core: GT, RTG core: GT)	0.593
GGGCGTGTGTGGGTTCTAACCTGTTGCCTAG [GGGCGTGCTAG_LTGcore_TG_RTGcore_CT] (site GGGCGTGCTAG) (LTG core: TG, RTG core: CT)	0.228
GGTGCCCAGTGGGTTCTAACCTGTTGCCGAG [GGTGCCCCTCG_LTGcore_AG_RTGcore_CT] (site GGTGCCCCTCG) (LTG core: AG, RTG core: CT)	0.202
GGTGCCCCATGGGTTCTAACCTGTTGCCGAG [GGTGCCCCTCG_LTGcore_CA_RTGcore_CT] (site GGTGCCCCTCG) (LTG core: CA, RTG core: CT)	0.158
GGTGCCCCATGGGTTCTAACCTGTTGCCGTG [GGTGCCCCTCG_LTGcore_CA_RTGcore_CA] (site GGTGCCCCTCG) (LTG core: CA, RTG core: CA)	0.0735
GGTGCCCCTTGGGTTCTAACCTGTTGCCGTA [GGTGCCCCTCG_LTGcore_CT_RTGcore_TA] (site GGTGCCCCTCG) (LTG core: CT, RTG core: TA)	0.258
GGTGCCCGATGGGTTCTAACCTGTTGCCGAG [GGTGCCCCTCG_LTGcore_GA_RTGcore_CT] (site GGTGCCCCTCG) (LTG core: GA, RTG core: CT)	0.0132

Sequence	recombinant barcode read abundance (log10)
GGTGCCCGCTGGGTTCTAACCTGTTGCCGAG [GGTGCCCCTCG_LTGcore_GC_RTGcore_CT] (site GGTGCCCCTCG) (LTG core: GC, RTG core: CT)	0.0494
GGTGCCCGGTGGGTTCTAACCTGTTGCCGAG [GGTGCCCCTCG_LTGcore_GG_RTGcore_CT] (site GGTGCCCCTCG) (LTG core: GG, RTG core: CT)	0.0774
GGTGCCCGTTGGGTTCTAACCTGTTGCCGAC [GGTGCCCCTCG_LTGcore_GT_RTGcore_GT] (site GGTGCCCCTCG) (LTG core: GT, RTG core: GT)	0.151
GGTGCCCTATGGGTTCTAACCTGTTGCCGAG [GGTGCCCCTCG_LTGcore_TA_RTGcore_CT] (site GGTGCCCCTCG) (LTG core: TA, RTG core: CT)	0.122
GGTGCCCTCTGGGTTCTAACCTGTTGCCGGA [GGTGCCCCTCG_LTGcore_TC_RTGcore_TC] (site GGTGCCCCTCG) (LTG core: TC, RTG core: TC)	0.0162
GGTGCCCTGTGGGTTCTAACCTGTTGCCGCA [GGTGCCCCTCG_LTGcore_TG_RTGcore_TG] (site GGTGCCCCTCG) (LTG core: TG, RTG core: TG)	0.15
GGTGCCCTTTGGGTTCTAACCTGTTGCCGAG [GGTGCCCCTCG_LTGcore_TT_RTGcore_CT] (site GGTGCCCCTCG) (LTG core: TT, RTG core: CT)	0.0486
GTCGCCCATTGGGTTCTAACCTGTTGCTAAG [GTCGCCCCTTA_LTGcore_AT_RTGcore_CT] (site GTCGCCCCTTA) (LTG core: AT, RTG core: CT)	0.926
GTCGCCCCCTGGGTTCTAACCTGTTGCTAGG [GTCGCCCCTTA_LTGcore_CC_RTGcore_CC] (site GTCGCCCCTTA) (LTG core: CC, RTG core: CC)	0.416
GTCGCCCCTTGGGTTCTAACCTGTTGCTAAA [GTCGCCCCTTA_LTGcore_CT_RTGcore_TT] (site GTCGCCCCTTA) (LTG core: CT, RTG core: TT)	0.194
GTCGCCCCTTGGGTTCTAACCTGTTGCTACA [GTCGCCCCTTA_LTGcore_CT_RTGcore_TG] (site GTCGCCCCTTA) (LTG core: CT, RTG core: TG)	0.151
GTCGCCCCTTGGGTTCTAACCTGTTGCTACC [GTCGCCCCTTA_LTGcore_CT_RTGcore_GG] (site GTCGCCCCTTA) (LTG core: CT, RTG core: GG)	0.487
GTCGCCCCTTGGGTTCTAACCTGTTGCTACT [GTCGCCCCTTA_LTGcore_CT_RTGcore_AG] (site GTCGCCCCTTA) (LTG core: CT, RTG core: AG)	0.19
GTCGCCCCTTGGGTTCTAACCTGTTGCTAGG [GTCGCCCCTTA_LTGcore_CT_RTGcore_CC] (site GTCGCCCCTTA) (LTG core: CT, RTG core: CC)	0.238
GTCGCCCGCTGGGTTCTAACCTGTTGCTAAG [GTCGCCCCTTA_LTGcore_GC_RTGcore_CT] (site GTCGCCCCTTA) (LTG core: GC, RTG core: CT)	0.224
GTCGCCCTGTGGGTTCTAACCTGTTGCTACA [GTCGCCCCTTA_LTGcore_TG_RTGcore_TG] (site GTCGCCCCTTA) (LTG core: TG, RTG core: TG)	0.51
TAAGAATAGTGGGTTCTAACCTGTTGCCTAG [TAAGAATCTAG_LTGcore_AG_RTGcore_CT] (site TAAGAATCTAG) (LTG core: AG, RTG core: CT)	0.079
TAAGAATAGTGGGTTCTAACCTGTTGCCTCT [TAAGAATCTAG_LTGcore_AG_RTGcore_AG] (site TAAGAATCTAG) (LTG core: AG, RTG core: AG)	0.0922
TAAGAATCTTGGGTTCTAACCTGTTGCCTAA [TAAGAATCTAG_LTGcore_CT_RTGcore_TT] (site TAAGAATCTAG) (LTG core: CT, RTG core: TT)	0.175
TAAGAATCTTGGGTTCTAACCTGTTGCCTGC [TAAGAATCTAG_LTGcore_CT_RTGcore_GC] (site TAAGAATCTAG) (LTG core: CT, RTG core: GC)	0.359
TAAGAATGCTGGGTTCTAACCTGTTGCCTAG [TAAGAATCTAG_LTGcore_GC_RTGcore_CT] (site TAAGAATCTAG) (LTG core: GC, RTG core: CT)	0.216
TAAGAATGGTGGGTTCTAACCTGTTGCCTAG [TAAGAATCTAG_LTGcore_GG_RTGcore_CT] (site TAAGAATCTAG) (LTG core: GG, RTG core: CT)	0.0162
